Data as given in US9556160B2, “Guanidine compound” (Astellas Pharma Inc., priority 2011, dated 2017).
Structures can show the parent of a compound that is named as a salt.

Experiments:
[1] = system: VAP-1 enzyme (SSAO) activity in rat plasma; assay: Inhibitory effect on rat VAP-1 enzyme (SSAO) activity in rat plasma after oral administration; assay type: in vivo, Wistar male rats; details: rat plasma VAP-1 activity, oral 0.3 mg/kg; for Inhibition Ratio (%) 1 h: 1 h after administration; for Inhibition Ratio (%) 3 h: 3 h after administration; for Inhibition Ratio (%) 6 h: 6 h after administration; for Inhibition Ratio (%) 24 h: 24 h after administration; for Inhibition Ratio (%) 12 h: 12 h after administration
Method: Eight-week to twelve-week Wistar male rats were fasted for 20 hours, and orally administered with a test drug ([…]). Heparin blood collection from the tail vein was performed immediately before the administration, and at 1 h, 3 h, 6 h, 12 h, or 24 h after the administration. The resulting blood was subjected to centrifugation at 14000 rpm for 5 minutes to separate plasma, and the VAP-1 enzyme activity in the resulting plasma was measured by a radio-enzyme assay method.
For the radio-enzyme assay method, ^14C-benzylamine which is a synthetic substrate (10 μM) was reacted with the resulting plasma at 37° C., and the resulting metabolite was extracted with a mixture of toluene/ethyl acetate. The radioactivity was measured and taken as a VAP-1 enzyme activity in the plasma. The effect of the test drug was calculated from the inhibitory ratio (%) of the VAP-1 activity after the administration of the test drug relative to the VAP-1 activity in the plasma immediately before the administration.

[2] = target: human VAP-1 enzyme (SSAO) (Homo sapiens (Human), UniProt Q16853); assay: Inhibitory effect on human VAP-1 enzyme (SSAO) activity, radiochemistry-enzymatic assay with 14C-benzylamine; assay type: biochemical; details: CHO-expressed human VAP-1, 14C-benzylamine 1×10^−5 mol/L
human VAP-1 enzyme (SSAO), sequence (Q16853 whole entry): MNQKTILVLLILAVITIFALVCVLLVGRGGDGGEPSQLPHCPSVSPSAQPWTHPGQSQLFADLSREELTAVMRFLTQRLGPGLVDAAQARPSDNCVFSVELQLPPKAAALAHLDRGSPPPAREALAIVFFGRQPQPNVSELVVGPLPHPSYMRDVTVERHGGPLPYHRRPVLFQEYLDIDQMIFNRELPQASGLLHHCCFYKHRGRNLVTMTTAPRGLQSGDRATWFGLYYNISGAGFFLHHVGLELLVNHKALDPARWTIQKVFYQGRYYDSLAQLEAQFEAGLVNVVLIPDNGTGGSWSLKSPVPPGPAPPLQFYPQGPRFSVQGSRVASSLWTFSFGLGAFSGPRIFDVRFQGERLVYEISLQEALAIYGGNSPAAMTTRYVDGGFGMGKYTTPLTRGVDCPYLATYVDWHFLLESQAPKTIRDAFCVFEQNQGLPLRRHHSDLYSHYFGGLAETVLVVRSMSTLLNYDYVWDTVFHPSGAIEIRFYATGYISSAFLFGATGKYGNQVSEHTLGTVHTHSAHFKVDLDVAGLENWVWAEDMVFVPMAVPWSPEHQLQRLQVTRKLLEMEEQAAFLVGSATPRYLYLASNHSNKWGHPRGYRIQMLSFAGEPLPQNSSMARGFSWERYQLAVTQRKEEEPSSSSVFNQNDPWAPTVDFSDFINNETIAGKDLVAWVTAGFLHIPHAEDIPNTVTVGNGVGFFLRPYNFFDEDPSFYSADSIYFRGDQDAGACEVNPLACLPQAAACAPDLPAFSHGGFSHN
Method: (§1) After homogenizing CHO (Chinese Hamster Ovary) cells stably expressing a human VAP-1 enzyme (SSAO) in a 50 mM phosphate buffer containing 1% NP-40, an enzyme suspension was obtained by taking the supernatant obtained by centrifugation. The enzyme suspension was preincubated with the compound of the present invention in a 96-well microplate at room temperature for 30 minutes. Subsequently, the enzyme suspension was incubated with ^14C-benzylamine (a final concentration of 1×10^−5 mol/L) to a final volume of […] at 37° C. for 1 hour. The enzymatic reaction was stopped by the addition of 2 mol/L (50 pt) of citric acid.

rat VAP-1 enzyme (SSAO) = rat VAP-1 enzyme (SSAO) (Rattus norvegicus (Rat), UniProt O08590); assay: Inhibitory effect on rat VAP-1 enzyme (SSAO) activity, radiochemistry-enzymatic assay with 14C-benzylamine; assay type: biochemical; details: CHO-expressed rat VAP-1, 14C-benzylamine 1×10^−5 mol/L
rat VAP-1 enzyme (SSAO), sequence (O08590 whole entry): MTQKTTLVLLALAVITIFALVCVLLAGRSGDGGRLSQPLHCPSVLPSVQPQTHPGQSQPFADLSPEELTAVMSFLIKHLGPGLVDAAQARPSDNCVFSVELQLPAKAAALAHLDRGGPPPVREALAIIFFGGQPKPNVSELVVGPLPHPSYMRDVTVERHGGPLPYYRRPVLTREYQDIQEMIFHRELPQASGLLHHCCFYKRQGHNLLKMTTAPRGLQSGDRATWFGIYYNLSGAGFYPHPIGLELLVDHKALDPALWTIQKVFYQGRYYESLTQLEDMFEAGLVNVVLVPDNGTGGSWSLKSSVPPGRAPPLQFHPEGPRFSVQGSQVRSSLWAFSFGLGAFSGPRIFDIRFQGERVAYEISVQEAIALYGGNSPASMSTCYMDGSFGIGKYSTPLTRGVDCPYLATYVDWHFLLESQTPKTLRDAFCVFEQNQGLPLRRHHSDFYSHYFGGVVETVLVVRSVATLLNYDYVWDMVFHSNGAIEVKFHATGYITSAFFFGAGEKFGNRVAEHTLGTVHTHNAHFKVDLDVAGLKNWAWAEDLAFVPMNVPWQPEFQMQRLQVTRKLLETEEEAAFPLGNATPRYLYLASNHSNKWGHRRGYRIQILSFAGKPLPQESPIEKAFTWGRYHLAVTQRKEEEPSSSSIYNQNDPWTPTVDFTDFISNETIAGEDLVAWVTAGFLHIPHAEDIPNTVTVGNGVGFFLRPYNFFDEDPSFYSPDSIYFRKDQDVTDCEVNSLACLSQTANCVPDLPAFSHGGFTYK
Method: as §1, with “rat” for “human”, “μL)” for “pt)”, “acid. The oxidation products were extracted directly in a 200 μL toluene scintillator, and the radioactivity was measured with a scintillation spectrometer.” for “acid.”

Structure (SMILES)	IC50 [2] [nM]	IC50 (rat VAP-1 enzyme (SSAO)) [nM]	Inhibition Ratio (%) 1 h [1] [%]	Inhibition Ratio (%) 3 h [1] [%]	Inhibition Ratio (%) 6 h [1] [%]	Inhibition Ratio (%) 24 h [1] [%]	Inhibition Ratio (%) 12 h [1] [%]
N=C(N)NC(=O)OCc1cccc(-c2cnc(OCC3CCN(C(=O)c4cccnc4)CC3)nc2)c1F [Example 29]	7.2	1.9	46	60	58	22	–
Cl.N=C(N)NC(=O)OCc1cccc(-c2cnc(N3CCOCC3)nc2)c1F [Example 81]	9.7	3.9	78	78	78	–	53
CC(=O)Nc1nc(CCc2cccc(CNC(=O)NC(=N)N)c2)cs1.Cl [Example 83]	25	1.9	34	66	86	–	53
CC(=O)N1CCC(COc2ncc(-c3cccc(CNC(=O)NC(=N)N)c3F)cn2)CC1 [Example 105]	14	2.6	22	38	31	6	–
CCS(=O)(=O)N1CCN(c2cccc(COC(=O)NC(=N)N)c2F)CC1 [Example 157]	49	2.1	95	91	80	39	–
N=C(N)NC(=O)OCc1cccc(-c2cnc(N3CC[C@H](F)C3)nc2)c1 [Example 178]	33	4.4	63	73	67	–	80
N=C(N)NC(=O)OCc1cccc(N2CCN(c3cccnc3)C(=O)C2)c1F [Example 304]	34	6.6	52	56	56	18	–
N=C(N)NC(=O)NCc1cccc(-c2cnc(N3CCOCC3)nc2)c1 [Example 322]	51	22	40	55	50	–	38
N=C(N)NC(=O)OCc1cccc(-c2cnc(N3CCN(c4ccc(CCC(=O)O)cc4)CC3)nc2)c1F [Example 335]	11	2	82	84	86	–	83
CCC(=O)N1CCC(OC2CN(c3cccc(COC(=O)NC(=N)N)c3F)C2)CC1 [Example 551]	14	1.8	68	59	51	5	–
COCc1ccc(OC2CN(c3cccc(COC(=O)NC(=N)N)c3F)C2)cn1 [Example 553]	20	3	67	57	50	40	–
Cc1cc(COC2CN(c3cccc(COC(=O)NC(=N)N)c3F)C2)cc(C)n1 [Example 555]	20	3.5	67	69	54	27	–

The remaining compounds from weak to strong by IC50 (rat VAP-1 enzyme (SSAO)), led by results:

IC50 [2] [nM]	IC50 (rat VAP-1 enzyme (SSAO)) [nM]	Structure (SMILES)	Inhibition Ratio (%) 1 h [1] [%]	Inhibition Ratio (%) 3 h [1] [%]	Inhibition Ratio (%) 6 h [1] [%]	Inhibition Ratio (%) 24 h [1] [%]	Inhibition Ratio (%) 12 h [1] [%]
5.3	1.8	N=C(N)NC(=O)OCc1cccc(-c2cnc(OCC3CCN(C(=O)C4CC4)CC3)nc2)c1F [Example 74]	79	74	81	40	–
23	1.7	N=C(N)NC(=O)OCc1cccc(N2CCC(c3ccncc3)CC2)c1F [Example 52]	90	68	52	–	37
29	1.7	N=C(N)NC(=O)OCc1cccc(N2CCN(c3cnc(N4CC[C@@H](F)C4)nc3)CC2)c1F [Example 118]	87	86	88	59	–
19	1.7	Cc1ccc(N2CCN(c3cccc(COC(=O)NC(=N)N)c3F)CC2)cn1 [Example 300]	92	93	88	85	–
32	1.4	CC1(O)CCN(c2ncc(N3CCN(c4cccc(COC(=O)NC(=N)N)c4F)CC3)cn2)CC1 [Example 110]	96	96	95	75	–
9	1.4	CCC(=O)N1CCC(C2CN(c3cccc(COC(=O)NC(=N)N)c3F)C2)CC1 [Example 560]	89	91	84	58	–
2.7	1.3	N=C(N)NC(=O)OCc1cccc(N2CCN(c3ccn4ccnc4c3)CC2)c1F [Example 556]	55	70	46	19	–
23	1.2	COCc1cncc(N2CCN(c3cccc(COC(=O)NC(=N)N)c3F)CC2)c1 [Example 558]	84	87	81	62	–
3.4	1.1	COC1CN(c2ncc(-c3cccc(COC(=O)NC(=N)N)c3F)cn2)C1 [Example 63]	83	87	80	–	68
25	1	CC(=O)N1CCC(OC2CCN(c3cccc(COC(=O)NC(=N)N)c3F)CC2)CC1 [Example 220]	80	80	84	27	–
–	0.97	N=C(N)NC(=O)OCc1cccc(N2CCN(c3cccnc3)CC2)c1F [Example 293]	–	–	–	–	–
21	0.97	COCc1ccc(N2CCN(c3cccc(COC(=O)NC(=N)N)c3F)CC2)cn1 [Example 554]	99	100	87	72	–
19	0.95	N=C(N)NC(=O)OCc1cccc(N2CCN(C(=O)CC3CCOCC3)CC2)c1F [Example 273]	55	74	54	19	–
11	0.9	COC1CN(c2ncc(N3CCN(c4cccc(COC(=O)NC(=N)N)c4F)CC3)cn2)C1 [Example 316, 2-fluoro-3-{4-[2-(3-methoxyazetidin-1-yl)pyrimidin-5-yl]piperazin-1-yl}benzyl carbamimidoylcarbamate trihydrochloride]	91	99	98	–	91
4.3	0.81	CC(=O)N1CCC(C2CN(c3cccc(COC(=O)NC(=N)N)c3F)C2)CC1 [Example 559]	86	89	82	59	–
15	0.53	COc1ncc(N2CCN(c3cccc(COC(=O)NC(=N)N)c3F)CC2)cn1 [Example 126]	98	97	97	69	–
